Assays:
[1] = Relative toxicity of E5564 versus B531 (animal studies); settings: E5564 compared with B531
[2] = Plasma pharmacokinetics of E5564 after 72 hours intravenous infusion; assay type: in vivo, beagle dogs; settings: 72 h i.v. infusion; for T½: after end of infusion
Procedure: FIG. 4 is a graph showing the plasma levels of E5564 during and after 72 hours of intravenous infusion. […] At the indicated times, blood was drawn and analyzed for E5564 concentration by extraction and analysis by HPLC. Each value represents the mean±S.E.M. of three animals. No drug was detectable in samples drawn prior to dosing.
This long-term presence of unmodified E5564 in blood initially led us to believe that active drug was likely present for very long periods of time after cessation of drug administration.

LPS-induced IL-6 release = experiment: Inhibition of LPS-induced IL-6 release in ex vivo blood samples during intravenous infusion of E5564; parameters: species or system beagle dogs
Procedure: (§1) FIG. 5 is a pair of graphs showing ex vivo analysis of active E5564 during intravenous infusion. Activity of E5564 was determined during intravenous infusion of 0.24 mg/kg/hour E5564 (□,∘) or 2.4 mg/kg/hour E5564 (▪,●) into female (upper panel) or male (lower panel) beagle dogs. At the indicated times, blood was drawn and analyzed for E5564 activity by adding 1 ng/ml LPS, incubating for three hours at 37° C., and assaying the plasma fraction for IL-6 by bioassay, as is described in the Materials and Methods section (below). Each value represents the mean±standard deviation of samples assayed in duplicate from each animal. The zero hour sample was taken prior to infusion.
as §1, with “FIG. 6” for “FIG. 5”, “adding 10” for “adding 1”
as §1, with “FIG. 7” for “FIG. 5”, “adding 100” for “adding 1”
To assess the activity of E5564 over multiple time points from a single treated animal, we employed an ex vivo assay, as is mentioned above, to test for active drug in samples of blood drawn from a treated animal. Samples of blood were drawn from beagle dogs infused with E5564 over a period of 24 hours. One dog of each sex was tested under each of two dose regimens: a low dose of 0.24 mg/kg/hour and a high dose of 2.4 mg/kg/hour.
Blood samples were taken from these dogs at predose, 4 hours after initiation of infusion, and 24 hours after initiation of infusion. The blood samples were challenged with 0, 1, 10, or 100 ng/ml LPS, and then incubated for three hours. The samples were then analyzed for activation by LPS, using induction of cytokine response as a readout.
LPS from Escherichia coli (0111:B4) was purchased from List Biologicals (Campbell, Calif.). LPS was dissolved in sterile water at 1 mg/ml and stored at −20° C. Prior to use, LPS was sonicated in a bath sonicator (VW-380; Heat Systems-Ultrasonics Inc., Farmingdale, N.Y.) for 1-2 minutes immediately before use and diluted into Ca^2+, Mg^2+ free Hanks balanced salt solution (HBSS; Sigma).
Dogs were treated with E5564 (0.24 or 2.4 mg/kg/hour) dissolved in a mixture of placebo solution (10% lactose monohydrate, 0.045% Na2HPO4.7H2O, 0.035% NaH2PO4.H2O, 0.006% NaOH; pH 7.4±0.3) and 5% dextrose (1:4) by intravenous infusion via indwelling catheter for 24 hours at a rate of 2 mg/kg/hour.
(for time zero samples), or incubated with the indicated concentrations of LPS for three hours. Plasma was then prepared and immediately frozen at −80° C. Samples were stored at −80° C. until assay.
B9 cells were the gift of Dr. Mary Rodrick (Beth Israel Deaconess Hospital, Boston, Mass.). They were grown in Iscove's DMEM medium containing 5% fetal bovine serum (FBS), […] 2-mercaptoethanol, 2 mM L-glutamine, and 100 U/ml penicillin/streptomycin. […]

With CCCCCC/C=C\CCCCCCCCCC(=O)N[C@H]1[C@H](OC[C@H]2O[C@H](OP(=O)(O)O)[C@H](NC(=O)CC(=O)CCCCCCCCCCC)[C@@H](OCCCCCCCCCC)[C@@H]2O)O[C@H](COC)[C@@H](OP(=O)(O)O)[C@@H]1OCC[C@@H](CCCCCCC)OC [E5564, α-D-Glucopyranose, 3-O-decyl-2-deoxy-6-O-[2-deoxy-3-O-[(3R)-3-methoxydecyl)-6-O-methyl-2-[[(11Z)-1-oxo-11-octadecenyl)amino]-4-O-phosphono-β-D-glucopyranosyl]-2-[(1,3-dioxotetradecyl)amino]-,1-(dihydrogen phosphate)] the “Toxicity relative to B531” value [1] was “about twenty-fold less toxic than B531”, the AUC0-144 hours ([2]; dose 0.1 mg/kg, female) was 790 ± 51 µg·h/mL and the C72 hours ([2]; dose 0.1 mg/kg, female) was 10350 ± 930 ng/mL. The AUC0-144 hours ([2]; dose 0.1 mg/kg, male) was 1069 ± 139 µg·h/mL, the C72 hours ([2]; dose 0.1 mg/kg, male) was 13070 ± 1220 ng/mL and the AUC0-144 hours ([2]; dose 0.3 mg/kg, female) was 2616 ± 737 µg·h/mL. The C72 hours ([2]; dose 0.3 mg/kg, female) was 32400 ± 5720 ng/mL, the AUC0-144 hours ([2]; dose 0.3 mg/kg, male) was 3309 ± 485 µg·h/mL and the C72 hours ([2]; dose 0.3 mg/kg, male) was 41290 ± 7180 ng/mL. The AUC0-144 hours ([2]; dose 1 mg/kg, female) was 29642 ± 1514 µg·h/mL, the C72 hours ([2]; dose 1 mg/kg, female) was 393900 ± 14200 ng/mL and the AUC0-144 hours ([2]; dose 1 mg/kg, male) was 27114 ± 5737 µg·h/mL. The C72 hours ([2]; dose 1 mg/kg, male) was 366000 ± 69300 ng/mL, the T½ ([2]; dose 0.1 mg/kg, female) was 40.9 ± 9.5 h and the T½ ([2]; dose 0.1 mg/kg, male) was 38.4 ± 4.5 h. It also gave a T½ ([2]; dose 0.3 mg/kg, female) of 38.0 ± 11.6 h, a T½ ([2]; dose 0.3 mg/kg, male) of 39.9 ± 11.2 h and a T½ ([2]; dose 1 mg/kg, female) of 32.0 ± 2.8 h. For the same compound, the T½ ([2]; dose 1 mg/kg, male) was 35.1 ± 8.7 h, the “Inhibition of response to LPS (IL-6) vs predose” value (LPS-induced IL-6 release; infusion 0.24 mg/kg/hour, 1 ng/ml LPS, 4 hours after beginning infusion) was ≥ 98% and the “Inhibition of response to LPS (IL-6) vs predose” value (LPS-induced IL-6 release; infusion 0.24 mg/kg/hour, 1 ng/ml LPS, end of infusion (24 hours)) was “complete”. For the same compound, the “Inhibition of response to LPS (IL-6) vs predose” value (LPS-induced IL-6 release; infusion 0.24 mg/kg/hour, 10 ng/ml LPS, end of infusion (24 hours)) was ~85%, the “Maximum inhibition of response to LPS (IL-6) vs predose” value (LPS-induced IL-6 release; infusion 0.24 mg/kg/hour, 100 ng/ml LPS, end of infusion (24 hours)) was 34-52% and the “Inhibition of response to LPS (IL-6) vs predose” value (LPS-induced IL-6 release; infusion 2.4 mg/kg/hour, 1 ng/ml LPS, 4 hours after beginning infusion) was “complete inhibition”. The “Inhibition of response to LPS (IL-6) vs predose” value (LPS-induced IL-6 release; infusion 2.4 mg/kg/hour, 1 ng/ml LPS, end of infusion (24 hours)) was “complete”, the “Inhibition of response to LPS (IL-6) vs predose” value (LPS-induced IL-6 release; infusion 2.4 mg/kg/hour, 10 ng/ml LPS, 4 hours) was “nearly completely inhibited” and the “Inhibition of response to LPS (IL-6) vs predose” value (LPS-induced IL-6 release; infusion 2.4 mg/kg/hour, 10 ng/ml LPS, end of infusion (24 hours)) was “complete”. The “Inhibition of response to LPS (IL-6) vs predose” value (LPS-induced IL-6 release; infusion 2.4 mg/kg/hour, 100 ng/ml LPS, 4 hours) was “nearly completely inhibited” and the “Inhibition of response to LPS (IL-6) vs predose” value (LPS-induced IL-6 release; infusion 2.4 mg/kg/hour, 100 ng/ml LPS, end of infusion (24 hours)) was > 90%.

— US20050215517A1, “Use of an anti-endotoxin drug in the prevention and treatment of disease” (priority 1999, published 2005)
